According to ChEMBL document CHEMBL5727699, “Pyrimido-pyridazinone compounds and methods of use thereof” (2020):

Target: Tyrosine-protein kinase JAK2 (Homo sapiens, UniProt O60674)
Assay: Thirteen μL of assay buffer in blank and substrate control wells and 13 μL of Enzyme buffer mix in positive and test wells was added. The reaction mixture was incubated for 30 minutes at RT on a plate shaker. […] The reaction plate was incubated for 60 minutes at RT on a plate shaker. The reaction was stopped by adding 40 mM EDTA (10 μL) in buffer. Ten μL of antibody was added to all the wells.

Sequence of Tyrosine-protein kinase JAK2 (O60674 whole entry): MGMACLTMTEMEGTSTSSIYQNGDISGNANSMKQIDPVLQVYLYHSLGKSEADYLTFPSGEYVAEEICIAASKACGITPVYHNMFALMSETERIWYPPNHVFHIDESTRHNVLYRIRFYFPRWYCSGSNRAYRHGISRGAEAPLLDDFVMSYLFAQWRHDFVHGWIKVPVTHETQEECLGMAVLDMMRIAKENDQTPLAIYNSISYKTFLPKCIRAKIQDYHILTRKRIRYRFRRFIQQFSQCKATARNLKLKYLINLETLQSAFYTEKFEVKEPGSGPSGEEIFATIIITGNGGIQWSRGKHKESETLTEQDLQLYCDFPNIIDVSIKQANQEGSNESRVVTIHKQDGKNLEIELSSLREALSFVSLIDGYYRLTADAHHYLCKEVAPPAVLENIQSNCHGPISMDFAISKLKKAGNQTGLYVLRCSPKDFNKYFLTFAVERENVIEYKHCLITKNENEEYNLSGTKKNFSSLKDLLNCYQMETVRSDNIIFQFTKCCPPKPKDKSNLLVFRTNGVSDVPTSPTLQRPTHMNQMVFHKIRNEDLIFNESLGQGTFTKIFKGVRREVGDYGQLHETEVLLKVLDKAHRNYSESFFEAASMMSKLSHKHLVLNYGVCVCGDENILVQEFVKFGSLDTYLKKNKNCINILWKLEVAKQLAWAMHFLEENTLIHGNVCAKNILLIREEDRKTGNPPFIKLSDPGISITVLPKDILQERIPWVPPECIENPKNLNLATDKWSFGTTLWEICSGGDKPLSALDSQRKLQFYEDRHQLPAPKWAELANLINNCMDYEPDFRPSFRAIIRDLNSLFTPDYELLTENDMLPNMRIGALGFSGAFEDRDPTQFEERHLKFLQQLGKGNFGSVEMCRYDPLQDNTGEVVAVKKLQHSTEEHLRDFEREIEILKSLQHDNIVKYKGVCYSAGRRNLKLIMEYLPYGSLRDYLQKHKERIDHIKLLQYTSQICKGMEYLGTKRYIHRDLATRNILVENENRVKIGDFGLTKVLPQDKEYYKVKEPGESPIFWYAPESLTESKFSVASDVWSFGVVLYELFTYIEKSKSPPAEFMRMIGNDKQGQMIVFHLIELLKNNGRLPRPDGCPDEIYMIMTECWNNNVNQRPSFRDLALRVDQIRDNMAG

IC50: > 100 nM
Structure (SMILES): CC(C)(C#N)N1CCN(c2ccc(Nc3nc(N4CCCCCC4)nc4cn[nH]c(=O)c34)cc2)CC1
